We go through 21 compounds from patent US7166617B2, “Cyclic amide derivatives” (Mitsubishi Pharma Corporation, priority 2000, dated 2007).

Where a name gives a salt, the structure may show the parent alone.

One assay concerns the target T1, sigma 2 receptor (Rattus norvegicus, UniProt Q5U3Y7).
T1 construct: A crude P2 membrane fraction was prepared from livers of male rats (Sprague-Dawley rats); from tissue; host or cells: rat liver (male Sprague-Dawley), crude P2 membrane fraction
T1 sequence (Q5U3Y7 1-176): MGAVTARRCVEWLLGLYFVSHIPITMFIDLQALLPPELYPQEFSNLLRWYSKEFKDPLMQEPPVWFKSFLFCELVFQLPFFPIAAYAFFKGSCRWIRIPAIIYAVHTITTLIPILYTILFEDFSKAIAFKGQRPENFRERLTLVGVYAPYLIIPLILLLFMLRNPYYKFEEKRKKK
Description: Sigma 2-selective receptor binding inhibition test ([3H]-DTG, rat liver P2 membrane fraction). Conditions: [3H]-DTG 1 nM, 500 nM pentazocine, P2 fraction of livers of male Sprague-Dawley rats, 25° C., 2 hours. On the procedure:
Sigma Binding Site-Binding Inhibition Test
A crude P2 membrane fraction was prepared from livers of male rats (Sprague-Dawley rats) according to a method described in the literature (X. He, et al., J. Med. Chem., 36, pp. 566–571, 1993). In the presence of 500 nM pentazocine and a control compound at various concentrations (haloperidol, 10^−10 to 10^−6 M) or a test ligand at various concentrations (10^−10 to 10^−5 M) together with a radioactive ligand, the P2 fraction (0.4 ml) was incubated in 50 mM Tris-HCl (pH 7.4, final volume: 0.5 ml) at 25° C. for 2 hours. The reaction mixture was rapidly filtered on a Brandel cell harvester using Whatman GF/B filter paper, which was immersed beforehand in 0.5% polyethyleneimine for 1 hour, to stop the reaction. The filter paper was washed 4 times with the ice cooled incubation buffer. The non-specific results were evaluated by using 1 μM haloperidol, and the scintillation analysis and the curve analysis were performed as described above.
In the case of `CC(C)(C)C(=O)CN1CCC(CN2Cc3ccccc3C2=O)CC1` [Example 24, 2-[[1-(3,3-Dimethyl-2-oxobutyl)piperidin-4-yl]methyl]isoindolin-1-one hydrochloride], the inhibition constant Ki (in general, the equilibrium dissociation constant of an inhibitor or competing ligand from its target) amounted to 13 nM. Still for that read-out and setting: the value for `O=C(CN1CCC(CN2Cc3ccccc3C2=O)CC1)N1CCCCC1` [Example 50, 2-[[1-[2-Oxo-2-(piperidin-1-yl)ethyl]piperidin-4-yl]methyl]isoindolin-1-one fumarate] was 14 nM. Same read-out and setting: the value for `O=C(CN1CCC(CN2Cc3cc(Cl)ccc3C2=O)CC1)c1ccc(F)cc1` [Example 8, 5-Chloro-2-[[1-[2-(4-fluorophenyl)-2-oxoethyl]piperidin-4-yl]methyl]isoindolin-1-one hydrochloride] was 3.1 nM; that for `O=C1c2ccccc2CN1CC1CCN(CCc2c[nH]c3ccccc23)CC1` [Example 36, 2-[[1-[2-(Indol-3-yl)ethyl]piperidin-4-yl]methyl]isoindolin-1-one ½.fumarate] was 50 nM. Still for that read-out and setting: the value for `O=C(CN1CCC(CN2CCc3ccccc3C2=O)CC1)c1ccc(F)cc1` [Example 137, 2-[[1-[2-(4-Fluorophenyl)-2-oxoethyl]piperidin-4-yl]methyl]-3,4-dihydroisoquinolin-1(2H)-one hydrochloride] was 7.8 nM; that for `O=C(CN1CCC(CN2Cc3ccccc3C2=O)CC1)C1CCCCC1` [Example 84, 2-[[1-(2-Cyclohexyl-2-oxoethyl)piperidin-4-yl]methyl]isoindolin-1-one fumarate] was 3.4 nM; that for `O=C(CCN1CCC(CN2Cc3ccccc3C2=O)CC1)c1ccccc1` [Example 30, 2-[[1-[3-Phenyl-3-oxopropyl]piperidin-4-yl]methyl]isoindolin-1-one hydrochloride] was 22 nM.

`O=C(CCCN1CCC(CN2Cc3ccccc3C2=O)CC1)c1ccc(F)cc1` [Example 31, 2-[[1-[4-(4-Fluorophenyl)-4-oxobutyl]piperidin-4-yl]methyl]isoindolin-1-one hydrochloride] yielded a Ki of 22 nM. Take `O=C(CN1CCC(CN2Cc3ccccc3C2=O)CC1)c1ccccc1` [Example 13, 2-[[1-(2-Phenyl-2-oxoethyl)piperidin-4-yl]methyl]isoindolin-1-one hydrochloride]: the affinity, expressed as Ki, was 6.6 nM.

The assay is the same for the next values; noted with them: test compound 10 nM; [3H]-DTG 1 nM, 500 nM pentazocine, rat liver P2 fraction.
For the compound `COc1ccccc1SCCN1CCC(CN2Cc3ccccc3C2=O)CC1.O=C(O)/C=C/C(=O)O` [Example 110], the “Inhibitory rate against sigma 2 (%, 10 nM)” value is listed as 68%.

Still in this assay, the particulars now being: test compound 10 nM; [3H]-DTG 1 nM, 500 nM pentazocine, rat liver P2 fraction; read-out: Inhibitory rate against sigma 2 (%, 10 nM).
Consider `O=C(CN1CCC(CN2Cc3ccccc3C2=O)CC1)N1CCCCC1` [Example 50, 2-[[1-[2-Oxo-2-(piperidin-1-yl)ethyl]piperidin-4-yl]methyl]isoindolin-1-one fumarate], for which the inhibition at 0.01 µM came out at 52%. The same measure, in the same setting: the value for `COc1cccc(SCCN2CCC(CN3Cc4ccccc4C3=O)CC2)c1` [Example 111, 2-[[1-[2-(3-Methoxyphenylthio)ethyl]piperidin-4-yl]methyl]isoindolin-1-one fumarate] was 51%; that for `O=C1c2ccccc2CN1CC1CCN(CCSc2ccccc2F)CC1` [Example 112, 2-[[1-[2-(2-Fluorophenylthio)ethyl]piperidin-4-yl]methyl]isoindolin-1-one fumarate] was 60%; that for `Cc1cccc(C(=O)CN2CCC(CN3Cc4ccccc4C3=O)CC2)c1` [Example 78, 2-[[1-[2-(3-Tolyl)-2-oxoethyl]piperidin-4-yl]methyl]isoindolin-1-one fumarate] was 86%. Still for that read-out and setting: the value for `COc1ccccc1CCN1CCC(CN2Cc3cc(Br)ccc3C2=O)CC1` [Example 167, 2-[1-[2-(2-Methoxyphenyl)ethyl]piperidin-4-ylmethyl]-5-bromoisoindolin-1-one hydrochloride] was 62%. On the same count and under the same terms, to `O=C(CN1CCC(CN2Cc3ccccc3C2=O)CC1)C1CCCCC1` [Example 84, 2-[[1-(2-Cyclohexyl-2-oxoethyl)piperidin-4-yl]methyl]isoindolin-1-one fumarate] belongs 58%; to `COc1ccccc1C(=O)CN1CCC(CN2Cc3ccccc3C2=O)CC1` [Example 72, 2-[[1-[2-(2-Methoxyphenyl)-2-oxoethyl]piperidin-4-yl]methyl]isoindolin-1-one fumarate], 55%; to `O=C1c2ccccc2CN1CC1CCN(CC(=O)N2CCCc3ccccc32)CC1` [Example 48, 2-[[1-[2-(1,2,3,4-Tetrahydroquinolin-1-yl)-2-oxoethyl]piperidin-4-yl]methyl]isoindolin-1-one hydrochloride], 59%.

`O=C1c2ccccc2CN1CC1CCN(CCSc2cccc(F)c2)CC1` [Example 113, 2-[[1-[2-(3-Fluorophenylthio)ethyl]piperidin-4-yl]methyl]isoindolin-1-one fumarate]: the inhibition at 0.01 µM amounted to 64%. As for `O=C(CN1CCC(CN2Cc3ccoc3C2=O)CC1)c1ccc(F)cc1` [Example 158, 5-[[1-[2-(4-Fluorophenyl)-2-oxoethyl]piperidin-4-yl]methyl]-4,5-dihydro-6H-furo[2,3-c]pyrrol-6-one fumarate], the inhibition at 0.01 µM turned out to be 57%. Same read-out and setting: to `O=C1c2ccc(Br)cc2CN1CC1CCN(CCOc2ccc(F)cc2)CC1` [Example 177, 2-[1-[2-(4-Fluorophenyloxy)ethyl]piperidin-4-ylmethyl]-5-bromoisoindolin-1-one hydrochloride] belongs 55%. The same measure, in the same setting: to `COc1ccccc1CCN1CCC(CN2Cc3cc(C#N)ccc3C2=O)CC1` [Example 170, 5-Cyano-2-[1-[2-(2-methoxyphenyl)ethyl]piperidin-4-ylmethyl]isoindolin-1-one fumarate] belongs 52%; to `O=C1c2ccccc2CN1CC1CCN(CCc2ccccc2C(F)(F)F)CC1` [Example 96, 2-[[1-[2-(2-Trifluoromethylphenyl)ethyl]piperidin-4-yl]methyl]-isoindolin-1-one fumarate], 66%.
